In patent publication US20100249082A1, “MODULATORS OF HYPOXIA INDUCIBLE FACTOR-1 AND RELATED USES” (Bionaut Pharmaceuticals INC., priority 2007, published 2010):

What was measured:
Test in all cases: cell-based
[1] = target: T1, Na^+, K^+-ATPase (Homo sapiens, UniProt P05023); settings: for inhibition at 0.01 µM / inhibition at 0.1 µM / inhibition at 1 µM / inhibition at 5 µM / inhibition at 10 µM / inhibition at 50 µM: HEK293, HEK-293; for inhibition at 0.01 µM: Log[drug](M) −8.0; for inhibition at 5 µM: Log[drug](M) −5.3; for inhibition at 10 µM: Log[drug](M) −5.0; for inhibition at 50 µM: Log[drug](M) −4.3; for Rank order: HEK-293, ranked on potency (IC50 value); for Sample Solubility: HEK-293 screen test wells, 1% DMSO
T1 construct: The HEK-293 cell line endogenously expressing Na^+, K^+-ATPase; endogenous in cells; host or cells: HEK-293
Experimental: Cells were plated at a density of 50,000 cells/well in 96-well microplates and incubated at 37° C., 5% CO2 until 80-90% confluency was attained

[2] = target: Na^+, K^+-ATPase (Cricetulus griseus, UniProt A0A8C2N4Z0); settings: for inhibition at 0.5 µM / inhibition at 1 µM / inhibition at 5 µM / inhibition at 10 µM / inhibition at 50 µM / inhibition at 100 µM / inhibition at 200 µM / inhibition at 500 µM: CHO-K1; for remaining activity at 0.5 µM / remaining activity at 1 µM / remaining activity at 5 µM / remaining activity at 10 µM / remaining activity at 50 µM / remaining activity at 100 µM / remaining activity at 200 µM / remaining activity at 500 µM: CHO-K1, 0.5 h, read-out: Normalized Uptake (%)
Experimental: (§1) Compounds were screened using Ion Channel Research (ICR) technology and a non-radioactive Rubidium Uptake Assay
(§2) For all the test compounds and standard blockers, 100× solutions were used to prepare 1× test doses for Na^+, K^+-ATPase screen in CHO cell line. The final DMSO concentration in each well was 1%.
(§3) • 1. […] Rb^+ Uptake: Cells were washed with 200 μl of Rb^+ Uptake Buffer once and R^+ loaded by application of 198 μl R^+ Uptake Buffer. Compounds were added at 2 μl/well of a 100× stock solution in 100% DMSO in the uptake buffer followed by incubation for 30 minutes at room temperature (c. 22° C.). The total volume in each well was 200 μl (198 μl of R^+ Uptake Buffer and 2 μl of the 100× compound). The 100× compound solution gets diluted in R^+ Uptake Buffer to 1× and the DMSO to 1%. • 3. Wash: Residual R^+ and compound were removed by four successive washes with 200 μl of SPA-Wash Buffer. • 4. Cell Lysis: Intracellular samples were obtained by whole cell lysis with the application of 200 μl Lysis Solution. • 5. Analysis: The level of R^+ in the intracellular samples was measured by ICR8000 (Aurora Biomed Inc., Vancouver, Canada). using flame atomic absorption spectroscopy.

[3] = test system: Na^+, K^+-ATPase; settings: for Inhibition (%) / Normalized Uptake (%): CHO-K1; for Sample Solubility: CHO-K1 screen test wells, 1% DMSO
Experimental: as §1, §2, §3

| SMILES | IC50 [1] [µM] | inhibition at 0.01 µM [1] [%] | inhibition at 0.1 µM ([1]; Log[drug](M) −7.0) [%] | inhibition at 0.1 µM ([1]; Log[drug](M) −7.3) [%] | inhibition at 1 µM ([1]; Log[drug](M) −6.0) [%] | inhibition at 1 µM ([1]; Log[drug](M) −6.3) [%] | inhibition at 5 µM [1] [%] | inhibition at 10 µM [1] [%] | inhibition at 50 µM [1] [%] | Rank order [1] | Sample Solubility [1] | IC50 [2] [µM] | inhibition at 0.5 µM [2] [%] | remaining activity at 0.5 µM [2] [%] | Inhibition (%) ([3]; dose 1.0 uM) | Normalized Uptake (%) ([3]; dose 1.0 uM) | Inhibition (%) ([3]; dose 5.0 uM) | Normalized Uptake (%) ([3]; dose 5.0 uM) | Inhibition (%) ([3]; dose 10 uM) | Sample Solubility [3] | other results |
| --- | --- | --- | --- | --- | --- | --- | --- | --- | --- | --- | --- | --- | --- | --- | --- | --- | --- | --- | --- | --- | --- |
| C[C@]12CCC(=NOCCCCN3CCCCC3)C=C1CCC1C2CC[C@]2(C)[C@@H](c3ccc(=O)oc3)CC[C@]12O (some centres unmarked) [BP247, 3-[4-(Piperidinobutoxy)imino]-scillarinone] | 0.183 | 0 | 44.9 | 17.1 | 79.9 | 68.4 | 94.8 | 93.5 | 100 | 1 | Good | 47.4 | 0 | 96 | −0.3 | 96.2 | 9.2 | 88.2 | 15.2 | Good | Normalized Uptake (%) ([3]; dose 10 uM): 83.2%; Inhibition (%) ([3]; dose 50 uM): 44.9%; Normalized Uptake (%) ([3]; dose 50 uM): 58.3%; Inhibition (%) ([3]; dose 100 uM): 67.7%; Normalized Uptake (%) ([3]; dose 100 uM): 39.0%; Inhibition (%) ([3]; dose 200 uM): 89.0%; Normalized Uptake (%) ([3]; dose 200 uM): 21.1%; Inhibition (%) ([3]; dose 500 uM): 100.0%; Normalized Uptake (%) ([3]; dose 500 uM): 11.9% |
| C[C@]12CCC(=NOCCCN3CCCCC3)C=C1CCC1C2CC[C@]2(C)[C@@H](c3ccc(=O)oc3)CC[C@]12O (some centres unmarked) [BP246, 3-[3-(Piperidinopropoxy)imino]-scillarinone] | 0.335 | 0 | 28.5 | 13.9 | 79.1 | 48.5 | 96.3 | 96.1 | 100 | 1 | Good | 57.8 | 0 | 95.3 | – | – | – | – | – | Good | inhibition at 1 µM [2]: 2.2%; inhibition at 5 µM [2]: 12%; inhibition at 10 µM [2]: 21.5%; inhibition at 50 µM [2]: 42%; inhibition at 100 µM [2]: 64.7%; inhibition at 200 µM [2]: 89.3%; inhibition at 500 µM [2]: 100%; remaining activity at 1 µM [2]: 93.4%; remaining activity at 5 µM [2]: 84.8%; remaining activity at 10 µM [2]: 76.6%; remaining activity at 50 µM [2]: 58.7%; remaining activity at 100 µM [2]: 39%; remaining activity at 200 µM [2]: 17.5%; remaining activity at 500 µM [2]: 8.2% |
| C[C@]12CCC(=NOCCN3CCOCC3)C=C1CCC1C2CC[C@]2(C)[C@@H](c3ccc(=O)oc3)CC[C@]12O (some centres unmarked) [BP245, 3-[2-(Morpholinoethoxy)imino]-scillarinone] | 0.732 | 0 | 22.1 | 8.3 | 56 | 36 | 92.3 | 94.1 | 100 | 2 | Good | 93.2 | 0 | 98.9 | – | – | – | – | – | Good | inhibition at 1 µM [2]: 2.9%; inhibition at 5 µM [2]: 4.2%; inhibition at 10 µM [2]: 6.6%; inhibition at 50 µM [2]: 23.7%; inhibition at 100 µM [2]: 44.9%; inhibition at 200 µM [2]: 86.5%; inhibition at 500 µM [2]: 100%; remaining activity at 1 µM [2]: 96.9%; remaining activity at 5 µM [2]: 96%; remaining activity at 10 µM [2]: 94.3%; remaining activity at 50 µM [2]: 82.4%; remaining activity at 100 µM [2]: 67.6%; remaining activity at 200 µM [2]: 38.7%; remaining activity at 500 µM [2]: 29.3% |
| C[C@]12CCC(=NOCCCCCN3CCCCC3)C=C1CCC1C2CC[C@]2(C)[C@@H](c3ccc(=O)oc3)CC[C@]12O (some centres unmarked) [BP248, 3-[5-(Piperidinopentoxy)imino]-scillarinone] | 5.55 | 0 | 1.7 | 0.8 | 10.1 | 4.5 | 44.7 | 74 | 100 | 4 | Good | 27.9 | – | – | 0.0 | 105.6 | 9.1 | 96.6 | 27.0 | Good | Inhibition (%) ([3]; dose 0.50 uM): 1.3%; Normalized Uptake (%) ([3]; dose 0.50 uM): 104.5%; Normalized Uptake (%) ([3]; dose 10 uM): 81.1%; Inhibition (%) ([3]; dose 50 uM): 61.2%; Normalized Uptake (%) ([3]; dose 50 uM): 51.5%; Inhibition (%) ([3]; dose 100 uM): 84.1%; Normalized Uptake (%) ([3]; dose 100 uM): 31.6%; Inhibition (%) ([3]; dose 200 uM): 94.0%; Normalized Uptake (%) ([3]; dose 200 uM): 23.1%; Inhibition (%) ([3]; dose 500 uM): 100.0%; Normalized Uptake (%) ([3]; dose 500 uM): 17.9% |
